How the values were obtained:
Assay type in all cases: in vivo, mouse
[1] = tested on: A549 human lung carcinoma xenograft; assay: A549 FP3 xenograft tumor growth inhibition, with or without docetaxel; conditions: QDx1, Ab095 8 IP, docetaxel 7.5 IV, ADC 10 mg/kg/day IP
Experimental: (§1) The cell lines A549 and NCI-H460 were obtained from the American Type Culture Collection (ATCC, Manassas, Va.). A549 cell line was further passaged in mice as flank xenograft to improve xenograft tumor growth, resulting in the A549-FP3 line. Cells were cultured as monolayers in RPMI-1640 culture media (Invitrogen, Carlsbad, Calif.) supplemented with 10% Fetal Bovine Serum (FBS, Hyclone, Logan, Utah). To generate xenografts, 5×10^6 (A549 and NCI-H460) viable cells were inoculated subcutaneously into the right flank of immune deficient female SCID-bg mice (Charles River Laboratories, Wilmington, Mass.). The injection volume was 0.2 ml and composed of 1:1 S-MEM:Matrigel Matrigel (BD, Franklin Lakes, N.J.). Tumors were size matched at approximately 223 mm^3. […] Measurements of the length (L) and width (W) of the tumor were taken via electronic caliper and the volume was calculated according to the following equation: V=L×W^2/2. […]
(§2) To refer to efficacy of therapeutic agents, parameters of amplitude (TGI.), durability (TGD) are used. […] Tumor growth inhibition is calculated by 100*(1−Tv/Cv) where Tv and Cv are the mean tumor volumes of the treated and control groups, respectively. […] TGD is calculated by 100*(Tt/Ct−1) where Tt and Ct are the median time periods to reach 1 cm^3 of the treated and control groups, respectively.

[2] = tested on: NCI-H460 human lung carcinoma xenograft; assay: NCI-H460 xenograft tumor growth inhibition, with or without docetaxel; conditions: QDx1, Ab095 8 IP, docetaxel 7.5 IV, ADC 10 mg/kg/day IP
Experimental: as §1, §2

[3] = tested on: NCI-H146 (human small cell lung cancer) xenograft; assay: NCI-H146 xenograft tumor growth inhibition; conditions: SCID-bg mice
Experimental: The in vivo efficacy of anti-CD98 hybridoma mAb conjugates were tested using Ab3-CZ and Ab5-CZ as examples in NCI-H146 (human small cell lung cancer) xenograft model. […] The cells were cultured as monolayers in RPMI-1640 culture media (Invitrogen, Carlsbad, Calif.) that was supplemented with 10% Fetal Bovine Serum (FBS, Hyclone, Logan, Utah). To generate xenografts, 5×10^6 (NCI-H146) viable cells were inoculated subcutaneously into the right flank of immune deficient female SCID-bg mice (Charles River Laboratories, Wilmington, Mass.). The injection volume was 0.2 mL and composed of Matrigel (BD, Franklin Lakes, N.J.). Tumors were size matched at approximately 212 mm^3. Antibodies and conjugates were formulated in phosphate buffered saline, pH 7.2 and injected intraperitoneally. […] Therapy began within 24 hours after size matching of the tumors. Mice weighed approximately 21 g at the onset of therapy. Tumor volume was estimated two to three times weekly. Measurements of the length (L) and width (W) of the tumor were taken via electronic caliper and the volume was calculated according to the following equation: V=L×W^2/2. Mice were euthanized when tumor volume reached 3,000 mm^3 or skin ulcerations occurred. Eight mice were housed per cage. Food and water were available ad libitum. Mice were acclimated to the animal facilities for a period of at least one week prior to commencement of experiments. Animals were tested in the light phase of a 12-hour light: 12-hour dark schedule (lights on at 06:00 hours). Anti-CD98 conjugates (10 mg/kg) were administered as a single dose (QDx1) intraperitoneally. A human IgG control antibody (MSL109, a humanized IgG1 antibody that binds to cytomegalovirus (CMV) glycoprotein H) was used as a negative control agent.
To refer to efficacy of therapeutic agents, parameters of amplitude (TGImax), durability (TGD) and response frequency (CR, PR, OR) of therapeutic response are used. The efficacy of inhibition of NCI-H146 xenografts growth with CD98-targeted ADCs is illustrated by Table 6, below. In the tables, to refer to efficacy, parameters of amplitude (TGImax) and durability (TGD) of therapeutic response are used. TGImax is the maximum tumor growth inhibition during the experiment. Tumor growth inhibition is calculated by 100*(1−Tv/Cv) where Tv and Cv are the mean tumor volumes of the treated and control groups, respectively. TGD or tumor growth delay is the extended time of a treated tumor needed to reach a volume of 1 cm^3 relative to the control group. TGD is calculated by 100*(Tt/Ct−1) where Tt and Ct are the median time periods to reach 1 cm^3 of the treated and control groups, respectively. Distribution of the response amplitude in a specific group is given by the frequency of complete responders (CR), partial responders (PR), and overall responders (OR). CR is the percentage of mice within a group with a tumor burden of 25 mm^3 for at least three measurements. PR is the percentage of mice within a group with a tumor burden larger than 25 mm^3 but less than one-half of the volume at onset of treatment for at least three measurements. OR is the sum of CR and PR.
The in vivo anti-tumor efficacy of selected humanized anti-CD98 mAb conjugates were tested in NCI-H146 (human small cell lung cancer) xenograft model, as described in Example 6. Tumor growth inhibition was reported as TGImax in Table 28.

## CC(=O)O[C@@]12CO[C@@H]1C[C@H](O)[C@@]1(C)C(=O)[C@H](O)C3=C(C)[C@@H](OC(=O)[C@H](O)[C@@H](NC(=O)OC(C)(C)C)c4ccccc4)C[C@@](O)([C@@H](OC(=O)c4ccccc4)[C@H]21)C3(C)C [Docetaxel, docetaxel, reference compound]
[1]
  TGD: 80%
  TGImax: 62%
[2]
  TGD: 30%
  TGImax: 35%

## MSL109: "a humanized IgG1 antibody that binds to cytomegalovirus (CMV) glycoprotein H", "negative control agent" [reference compound]
[3]; 10 mg/kg IP QDx1
  Growth Inhibition TGD: 0%
  Growth Inhibition TGImax: 0%
  Response Frequency CR: 0%
  Response Frequency PR: 0%
[3]; 10 mg/kg IP QDx1, sum of CR and PR
  Response Frequency OR: 0%

Reference: patent US20230120736A1, “ANTI-CD98 ANTIBODIES AND ANTIBODY DRUG CONJUGATES” (AbbVie Inc., priority 2016, published 2023)
